Test results taken from patent US10391201B2, “Gene therapy” (Ospedale San Raffaele S.r.l., priority 2014, dated 2019).

What was measured:
[1] = system: CB-derived CD34+ cells; test: γ-retroviral SINRV-GFP transduction of CB-derived CD34+ cells; type: cell-based, human; settings: CB-derived HSPC; MOI of 10 (FIG. 24)
[2] = system: bone marrow (BM)-derived CD34+ cells; type: cell-based, human
Description: (§1) Human CB and BM-derived haematopoietic stem/progenitor cells (HSPC) were cultured in serum-free StemSpan medium (StemCell Technologies) supplemented with 100 ng/mL recombinant human stem cell factor (rhSCF), 20 ng/mL recombinant human thrombopoietin (rhTPO), 100 ng/mL recombinant human Flt3 ligand (rhFlt3) and 20 ng/mL recombinant human IL6 (rhIL6) (all from Peprotech) 16 to 24 hours prior to transduction. HSPC were then transduced at a concentration of 1×10^6 cells per mL with vesicular stomatitis virus glycoprotein (VSV-G)-pseudotyped SINLV for 20 hours at the indicated multiplicity of infection (MOI) in the same medium. After transduction, cells were washed and maintained serum-free StemSpan supplemented with cytokines as above until the reading of GFP-positive (GFP+) cells by FACS. After FACS they were maintained in Roswell Park Memorial Institute medium (RPMI, Lonza) supplemented with 10% FBS, 25 ng/mL rhSCF, 5 ng/mL rhIL6, 25 ng/mL rhFlt3 and 5 ng/mL rhTPO for another seven days before analysis of vector copy numbers. MDM were transduced 7 days after differentiation. T lymphocytes were transduced at a concentration of 10^6 cells per mL, after 3 days of stimulation. All the cells were exposed to the vector for 16-20 hours.
(§2) They were added to the transduction medium at the indicated concentration and washed out with the vector 16-20 hours later.
(§3) GFP expression in transduced cells was measured 5-7 days post-transduction. Adherent MDM were detached by scraping in 5 mM PBS-EDTA, washed and resuspended in PBS containing 2% FBS. Cells grown in suspension were washed and resuspended in PBS containing 2% FBS. To exclude dead cells from the analysis, 10 ng/mL 7-aminoactinomycin D (7-AAD) was added.
(§4) DNA from cell cultures was extracted using a Maxwell 16 instrument (Promega) or Blood & Cell Culture DNA Micro Kit (Qiagen). To amplify the vector sequence, primers and probes complementary to the vector Rev responsive element sequence were used. Vector copy numbers and replication intermediates were normalised to genomic DNA content, which was assessed using the human TERT gene. Quantitative polymerase chain reaction (qPCR) primers and probe sequences and conditions were previously described (Santoni de Sio, F. R. et al (2006) Blood 107: 4257-65).

[3] = system: cord blood (CB)-derived CD34+ cells; type: cell-based, human
Description: as §1, §2, §3, §4

[4] = system: Murine Lin− HSPC; test: SINLV-GFP transduction of murine Lin- HSPC; type: cell-based; settings: MOI 1, 10 μM CsA, 10 μg/ml Rapamycin or combination (FIG. 29A)
Description: The percentage of GFP+ cells was evaluated by FACS 5 days post-transduction. Data are the mean±SEM of three independent experiments for HSPC and three independent transductions for CD4+ T cells. p values are for One way ANOVA with Bonferroni's multiple comparison.

[5] = system: IFNα; test: IFNα ELISA on supernatants of transduced CB-derived HSPC; type: cell-based, human; settings: CB-derived HSPC 24 hours after exposure (FIG. 26)
Description: IFNα levels in supernatants from HSPC transduced in the presence of the agents. […] IFNα concentration was assessed using the VeriKine™ Human IFN Alpha ELISA Kit. HUVEC-10 cells were used as a positive control and the medium in which the cells were cultured as the negative control. Data represent the mean±SEM of three independent experiments.
To assess the secretion of human IFNα upon transduction of CB-derived HSPCs in the presence of the different compounds, supernatants from transduced cells were harvested 24 hours post-transduction and the IFNα concentration was assessed using the VeriKine™ Human IFN Alpha ELISA Kit (PBL interferon source, #41100) according to manufacturer's instructions.

[6] = system: CB-derived CD34+ HSPC clonogenic progenitors; test: Colony-forming cell assay of transduced CB-derived CD34+ cells; type: cell-based, human; settings: MOI 10; plating of vital cells in methylcellulose (FIG. 21A)
Description: Colony-forming cell assays were performed by plating 8×10^2 human cord blood-derived CD34^+ cells transduced with SINLV-GFP at a MOI of 10 in presence of the different compounds in a methylcellulose-based medium (Methocult GF4434, Stem Cell Technologies). 15 days later, colonies were scored by light microscopy for colony numbers and morphology. CFU-E and BFU-E were scored as erythroid colonies, while CFU-G, CFU-M, CFU-GM and CFU-GEMM as myeloid colonies.
Human differentiated cells from CFC were harvested from a single plate (pool of colonies) and mixed into a single cell suspension. Cells were then washed and resuspended in PBS containing 2% FBS. For immunostaining, cells were incubated with anti-human receptor blocking antibodies for 15 min at 4° C. and then stained for 20 min at 4° C. with anti-human CD235a and CD33 antibodies (for antibodies, see Table 1). To exclude dead cells from the analysis, cells were washed and resuspended in PBS containing 10 ng/mL 7-aminoactinomycin D (7-AAD).

[7] = system: BM-derived CD34+ cells; test: γ-retroviral SINRV-GFP transduction of BM-derived CD34+ cells; type: cell-based, human; settings: BM-derived HSPC; MOI of 10 (FIG. 24)
Description: A, B. The percentage of GFP+ cells was evaluated by FACS five days after transduction. Data represent the mean±SEM of four independent experiments.
Third generation lentivirus (LV) stocks were prepared, concentrated and titred as previously described (Dull, T. et al. (1998) J. Virol. 72: 8463-71; Follenzi, A. et al. (2000) Nat. Genetics 25: 217-22). […]. Bald vector, a normal LV produced by omitting the Env-encoding plasmid during vector production, was produced as a negative control. During vector production, the Env construct was substituted by pcDNA3.1 (Invitrogen Inc.). […]
Human CB and BM-derived haematopoietic stem/progenitor cells (HSPC) were cultured in serum-free StemSpan medium (StemCell Technologies) supplemented with 100 ng/mL recombinant human stem cell factor (rhSCF), 20 ng/mL recombinant human thrombopoietin (rhTPO), 100 ng/mL recombinant human Flt3 ligand (rhFlt3) and 20 ng/mL recombinant human IL6 (rhIL6) (all from Peprotech) 16 to 24 hours prior to transduction. […] After transduction, cells were washed and maintained serum-free StemSpan supplemented with cytokines as above until the reading of GFP-positive (GFP+) cells by FACS. […]

**Q.** `CO[C@H]1C[C@@H]2CC[C@@H](C)[C@@](O)(O2)C(=O)C(=O)N2CCCC[C@H]2C(=O)O[C@H]([C@H](C)C[C@@H]2CC[C@@H](O)[C@H](OC)C2)CC(=O)[C@H](C)/C=C(\C)[C@@H](O)[C@@H](OC)C(=O)[C@H](C)C[C@H](C)/C=C/C=C/C=C/1C` [rapamycin, Rapamycin] was tested. Which “percentage of GFP+ cells with γ-retroviral SINRV” value [1] did it give?
**A.** Its value is “neither compound was able to significantly increase”.

**Q.** What about the “increase in the percentage of GFP+ cells” value [2] of the same compound?
**A.** The value was 2 fold.

**Q.** And the “increase in the percentage of GFP+ cells” value [3]?
**A.** The value was 2 fold.

**Q.** What about the “transduction efficiency in titration of Rapa” value ([3]; 10 μg/ml vs lower doses, MOI 1 (FIG. 28)) of the same compound?
**A.** The value was “improved transduction efficiency over lower doses”.

**Q.** And the “GFP+ cells with clinical grade SINLV” value ([3]; CB-derived CD34+ cells, clinical grade PGK-GFP SINLV, MOI of 10 (FIG. 25A))?
**A.** The value was “up to 60%”.

**Q.** And the “transduction efficiency of WT and CA mutant vectors” value ([3]; CD34+ cells, SINLVs with single CA point mutations MOI 1, vs DMSO (FIG. 14B))?
**A.** The value was “increased efficiency for all CA mutants”.

**Q.** And the “transduction levels in all HSPC subpopulations” value ([3]; CD34− progenitors to CD34+CD133+CD90+ cells, FACS three days after transduction (FIG. 15C))?
**A.** Its value is “equally improved transduction levels”.

**Q.** And the “transduction (percentage of GFP+ cells)” value [4]?
**A.** The value was “significantly improved transduction”.

**Q.** What about the IFNα secretion [5] of the same compound?
**A.** The IFNα secretion was “no detectable levels”.

**Q.** What about the “number of total, CFU-GM (myeloid) and BFU-E (erythroid) colonies” value [6] of the same compound?
**A.** The value was “No significant differences”.

**Q.** What about the “percentage of GFP+ cells with γ-retroviral SINRV” value [7] of the same compound?
**A.** The value was “neither compound was able to significantly increase”.
